The values that follow come from patent publication EP3928779A1 (Chugai Seiyaku Kabushiki Kaisha, priority 2014, dated 2016).

For this test, the system named is rat small-intestinal brush border membrane vesicles. Description: Inhibitory effect on 33PO4 uptake into rat small-intestinal brush border membrane vesicles (rapid filtration method). It counts as biochemical. To be noted: 33PO4 uptake into rat small-intestinal BBMVs; test compound 1 µM; reacted for 60 seconds. Here is the method: Brush border membrane vesicles (BBMVs) were prepared using the upper region of the small intestine of each Wistar female rat (4-5 weeks old). […] The ^33PO4 transport activity of the small-intestinal BBMVs was determined by the rapid filtration method. […] Then, ice-cold buffer C (110 mM NaCl, 1 mM KH2PO4, and 10 mM HEPES (pH 7.5)) was added to each reaction mixture, which was immediately suctionfiltered through a Millipore filter. The filter was washed with buffer C, and each sample was then dissolved in a liquid scintillator. The amount of ^33PO4 uptake into BBMVs was measured using a liquid scintillation counter. […]
Turning to `CN1N(Cc2ccc(OCCN3CCN(CCO)CC3)c(F)c2F)C(=O)C(C(=O)Nc2ccc(C(F)(F)F)cc2-c2cc(C(F)(F)F)ncn2)=C(O)C12CCCC2` [Example 376], the “Rate of uptake inhibition (%) (1 µM)” value came to 33%.

Take `Cc1cccc(CN2C(=O)C(C(=O)Nc3cc(F)c(Br)c(F)c3)=C(O)[C@@]3(C)CCCN23)c1F` [Example 195]: the “Rate of uptake inhibition (%) (1 µM)” value is on record as 76%.

With `C[C@]12CCCN1N(Cc1ccc(Br)cc1F)C(=O)C(C(=O)Nc1cc(F)c(Br)c(F)c1)=C2O` [Example 166, (4aR)-N-(4-Bromo-3,5-difluorophenyl)-1-[(4-bromo-2-fluorophenyl)methyl]-4-hydroxy-4a-methyl-2-oxo-6,7-dihydro-5H-pyrrolo[1,2-b]pyridazine-3-carboxamide], the “Rate of uptake inhibition (%) (1 µM)” value amounted to 73%.

Turning to `COc1c(C#N)ncnc1-c1cc(C(F)(F)F)ccc1NC(=O)C1=C(O)[C@@]2(C)CCCN2N(Cc2cccc(F)c2F)C1=O` [Example 25], the “Rate of uptake inhibition (%) (1 µM)” value was determined as 82%.

Take `C[C@]12CCCN1N(Cc1cc(F)cc(F)c1)C(=O)C(C(=O)Nc1ccc(C(F)(F)F)cc1-c1ccc(C(F)(F)F)nc1)=C2O` [Example 171]: the “Rate of uptake inhibition (%) (1 µM)” value is 78%.

As to `C[C@]12CCCN1N(Cc1c(F)cc(C#CCCOC[C@H](O)CO)cc1F)C(=O)C(C(=O)Nc1ccc(C(F)(F)F)cc1-c1ccc(C(F)(F)F)nc1)=C2O` [Example 145], the “Rate of uptake inhibition (%) (1 µM)” value is 78%.

Take `CN(CCOCCOc1ccc(CN2C(=O)C(C(=O)Nc3ccc(C(F)(F)F)cc3-c3cc(C(F)(F)F)ncn3)=C(O)C3(CCCC3)N2C)c(F)c1F)C[C@H](O)[C@@H](O)[C@H](O)[C@H](O)CO` [Example 420, 7-[[2,3-Difluoro-4-[2-[2-[methyl-[(2S,3R,4R,5R)-2,3,4,5,6-pentahydroxyhexyl]amino]ethoxy]ethoxy]phenyl]methyl]-10-hydroxy-6-methyl-8-oxo-N-[4-(trifluoromethyl)-2-[6-(trifluoromethyl)pyrimidin-4-yl]phenyl]-6,7-diazaspiro[4.5]dec-9-ene-9-carboxamide]: the “Rate of uptake inhibition (%) (1 µM)” value is given as 19%.

`COCCN(C)CCOCCOCCOc1ccc(CN2C(=O)C(C(=O)Nc3ccc(C(F)(F)F)cc3-c3cc(C(F)(F)F)ncn3)=C(O)C3(CCCC3)N2C)c(F)c1F` [Example 430]: the “Rate of uptake inhibition (%) (1 µM)” value was found to be 29%.

Consider `C[C@]12CCCN1N(Cc1cccc(F)c1F)C(=O)C(C(=O)Nc1ccc(C(F)(F)F)cc1-c1cc(Cl)cnc1Cl)=C2O` [Example 84], for which the “Rate of uptake inhibition (%) (1 µM)” value is listed as 91%.

`C[C@]12CCCN1N(Cc1ccc(F)c(F)c1)C(=O)C(C(=O)Nc1cc(F)c(Br)c(F)c1)=C2O` [Example 191]: the “Rate of uptake inhibition (%) (1 µM)” value worked out at 87%.

On to `C[C@]12CCCN1N(Cc1cccc(F)c1F)C(=O)C(C(=O)Nc1ccc(Br)cc1-c1ccc(Cl)nc1)=C2O` [Example 122, (4aR)-N-[4-Bromo-2-(6-chloropyridin-3-yl)phenyl]-1-[(2,3-difluorophenyl)methyl]-4-hydroxy-4a-methyl-2-oxo-6,7-dihydro-5H-pyrrolo[1,2-b]pyridazine-3-carboxamide], for which the “Rate of uptake inhibition (%) (1 µM)” value is recorded as 82%.

Regarding `C[C@]12CCCN1N(Cc1ccccc1)C(=O)C(C(=O)Nc1ccc(C(F)(F)F)cc1-c1cc(C(F)(F)F)ncn1)=C2O` [Example 188], the “Rate of uptake inhibition (%) (1 µM)” value is recorded as 93%.

Take `CN1N(Cc2ccc(OCCN3CCOCC3(C)C)c(F)c2F)C(=O)C(C(=O)Nc2ccc(C(F)(F)F)cc2-c2cc(C(F)(F)F)ncn2)=C(O)C12CCCC2` [Example 371]: the “Rate of uptake inhibition (%) (1 µM)” value is given as 38%.

Take “(4aR)-N-[2-(6-Cyano-5-methoxypyridin-1-yl)-4-(trifluoromethyl)phenyl]-1-[(2,3-difluorophenyl)methyl]-4-hydroxy-4a-methyl-2-oxo-6,7-dihydro-5H-pyrrolo[1,2-b] pyridazine-3-carboxamide [Example 114]”: the “Rate of uptake inhibition (%) (1 µM)” value is listed as 86%.

Consider `C[C@]12CCCN1N(Cc1c(F)cccc1F)C(=O)C(C(=O)Nc1ccc(C(F)(F)F)cc1-c1cc(C(F)(F)F)ncn1)=C2O` [Example 212], for which the “Rate of uptake inhibition (%) (1 µM)” value was 98%.

Regarding `CN1N(Cc2ccc(OCC(=O)N3CCOCC3)c(F)c2F)C(=O)C(C(=O)Nc2ccc(C(F)(F)F)cc2-c2cc(C(F)(F)F)ncn2)=C(O)C12CCC2` [Example 336], the “Rate of uptake inhibition (%) (1 µM)” value is 44%.

As to `CN1N(Cc2ccc(OCCN3CCOCC3)c(F)c2F)C(=O)C(C(=O)Nc2ccc(C(F)(F)F)cc2-c2ccc(C(F)(F)F)nc2)=C(O)C12CCC2` [Example 282], the “Rate of uptake inhibition (%) (1 µM)” value is listed as 55%.

Take `C[C@]12CCCN1N(Cc1cccc(F)c1F)C(=O)C(C(=O)Nc1ccc(C(F)(F)F)cc1-c1ncnc(C#N)c1Cl)=C2O` [Example 23]: the “Rate of uptake inhibition (%) (1 µM)” value was 84%.

On to `CN1N(Cc2ccc(OCCCCCOC[C@H](O)CO)c(F)c2F)C(=O)C(C(=O)Nc2ccc(C(F)(F)F)cc2-c2ccc(C(F)(F)F)nc2)=C(O)C12CCC2` [Example 385], for which the “Rate of uptake inhibition (%) (1 µM)” value turned out to be 39%.

As for `CN1N(Cc2ccc(OCCCCCOCCCO)c(F)c2F)C(=O)C(C(=O)Nc2ccc(C(F)(F)F)cc2-c2cc(C(F)(F)F)ncn2)=C(O)C12CCCC2` [Example 400], the “Rate of uptake inhibition (%) (1 µM)” value worked out at 36%.

Consider `CC(C)[C@@H]1C(O)=C(C(=O)Nc2ccc(C(F)(F)F)cc2-c2cc(C(F)(F)F)ncn2)C(=O)N(Cc2cccc(F)c2F)N1C` [Example 249], for which the “Rate of uptake inhibition (%) (1 µM)” value is given as 50%.

Turning to `COCC(C)(C)N(C)CCOc1ccc(CN2C(=O)C(C(=O)Nc3ccc(C(F)(F)F)cc3-c3cc(C(F)(F)F)ncn3)=C(O)C3(CCC3)N2C)c(F)c1F` [Example 349], the “Rate of uptake inhibition (%) (1 µM)” value was determined as 55%.

For the compound `Cc1c(Cl)ncnc1-c1cc(Cl)ccc1NC(=O)C1=C(O)[C@H](C(C)(C)C)N(C)N(Cc2ccc(OCCN3CCOCC3)c(F)c2F)C1=O` [Example 275], the “Rate of uptake inhibition (%) (1 µM)” value turned out to be 42%.

For the compound `C[C@]12CCCN1N(Cc1ccc(C#CCCCCC(=O)O)c(F)c1F)C(=O)C(C(=O)Nc1ccc(C(F)(F)F)cc1-c1cncc(C(F)(F)F)c1)=C2O` [Example 119, 7-[4-[[(4aR)-4-Hydroxy-4a-methyl-2-oxo-3-[[4-(trifluoromethyl)-2-[5-(trifluoromethyl)pyridin-3-yl]phenyl]carbamoyl]-6.7-dihydro-5H-pyrrolo[1,2-b]pyridazin-1-yl]methyl]-2.3-difluorophenyl]hept-6-ynoate], the “Rate of uptake inhibition (%) (1 µM)” value was 71%.

As for `CN1[C@@H](C(C)(C)C)C(O)=C(C(=O)Nc2ccc(C(F)(F)F)cc2-c2ccc(C(F)(F)F)nc2)C(=O)N1Cc1cccc(F)c1F` [Example 238], the “Rate of uptake inhibition (%) (1 µM)” value is on record as 47%.

On to `Cc1nc(NC(=O)C2=C(O)C3(CCC3)N(C)N(Cc3cccc(F)c3F)C2=O)ccc1Br` [Example 259], for which the “Rate of uptake inhibition (%) (1 µM)” value is 52%.

As to `CN(C)S(=O)(=O)c1ccc(-c2cc(C(F)(F)F)ccc2NC(=O)C2=C(O)[C@@]3(C)CCCN3N(Cc3cccc(F)c3F)C2=O)s1` [Example 71], the “Rate of uptake inhibition (%) (1 µM)” value stood at 97%.

As for `CN1N(Cc2ccc(OCCN3CCOCC3)c(F)c2F)C(=O)C(C(=O)Nc2ccc(C(F)(F)F)cc2-c2cc(C(F)(F)F)ncn2)=C(O)C12CCCCC2` [Example 295], the “Rate of uptake inhibition (%) (1 µM)” value came to 21%.

Consider `C[C@]12CCCN1N(Cc1cccc(F)c1F)C(=O)C(C(=O)Nc1ccc(C(F)(F)F)cc1-c1ccc(C(F)(F)F)nc1)=C2O` [Example 90], for which the “Rate of uptake inhibition (%) (1 µM)” value turned out to be 91%.

Consider `CN1[C@@H](C(C)(C)C)C(O)=C(C(=O)Nc2ccc(Cl)cc2-c2cc(C(F)(F)F)ncn2)C(=O)N1Cc1cccc(F)c1F` [Example 237], for which the “Rate of uptake inhibition (%) (1 µM)” value came to 51%.

Turning to `C[C@]12CCCN1N(Cc1cccc(F)c1F)C(=O)C(C(=O)Nc1ccc(Br)cc1-c1cc(C(F)(F)F)ncn1)=C2O` [Example 64], the “Rate of uptake inhibition (%) (1 µM)” value is 77%.

Turning to `CC(C)[C@@H]1C(O)=C(C(=O)Nc2ccc(Cl)cc2-c2cc(C(F)(F)F)ncn2)C(=O)N(Cc2cccc(F)c2F)N1C` [Example 250], the “Rate of uptake inhibition (%) (1 µM)” value came out at 52%.

Consider `C[C@]12CCCN1N(Cc1ccc(Cl)cc1)C(=O)C(C(=O)Nc1cc(F)c(Br)c(F)c1)=C2O` [Example 223], for which the “Rate of uptake inhibition (%) (1 µM)” value was found to be 77%.

For `CN1N(Cc2cccc(F)c2F)C(=O)C(C(=O)Nc2ccc(Cl)cc2-c2cc(C(F)(F)F)ncn2)=C(O)C12CCC2` [Example 255], the “Rate of uptake inhibition (%) (1 µM)” value was found to be 80%.

Regarding `C[C@]12CCCN1N(Cc1cccc(F)c1F)C(=O)C(C(=O)Nc1ccc(C(F)(F)F)cc1-c1ncnc(Cl)c1Cl)=C2O` [Example 70], the “Rate of uptake inhibition (%) (1 µM)” value turned out to be 79%.

As to `C[C@]12CCCN1N(Cc1cccc(F)c1F)C(=O)C(C(=O)Nc1ccc(Cl)cc1F)=C2O` [Example 76], the “Rate of uptake inhibition (%) (1 µM)” value is recorded as 77%.

As for `COc1cccc(-c2cc(C(F)(F)F)ccc2NC(=O)C2=C(O)[C@@]3(C)CCCN3N(Cc3ccc(C#CCOCCCCO)c(F)c3F)C2=O)c1OC` [Example 123, (4aR)-1-[[2,3-Difluoro-4-[3-(4-hydroxybutoxy)prop-1-ynil]phenyl]methyl)-N-[2-(2.3-dimethoxyphenyl)-4-(trifluoromethyl)phenyl]-4-hydroxy-4a-methyl-2-oxo-6,7-dihydro-5H-pyrrolo[1,2-b]pyridazine-3-carboxamide], the “Rate of uptake inhibition (%) (1 µM)” value stood at 87%.

On to `COc1cc(-c2cc(C(F)(F)F)ccc2NC(=O)C2=C(O)C(C)(C)N(C)N(Cc3cccc(F)c3F)C2=O)cnc1C#N` [Example 302], for which the “Rate of uptake inhibition (%) (1 µM)” value was found to be 79%.
